{"source": "paper PMC7579906", "about": "“Discovery of a dual inhibitor of NQO1 and GSTP1 for treating glioblastoma” (Journal of Hematology & Oncology, 2020)", "key": {"U87MG/EGFRvIII cells [1]": {"tested_on": "U87MG/EGFRvIII cells", "test": "Cell proliferation (MTT) assay, U87MG/EGFRvIII", "type": "cell-based, human", "experimental": "The human glioblastoma cell line U87MG was stably transfected with vector control, pLHCX-EGFRvIII, pGFP-NQO1 and pRS-GSTP1, which were supplemented with various antibiotics. For EGFRvIII, 150 μg/mL of hygromycin was used; for pGFP-NQO1 and pRS-GSTP1, 0.7 μg/mL of puromycin was employed. The cells were supplemented with 10% fetal bovine serum (Hyclone, USA), penicillin (100 U/ml) and streptomycin (100 U/ml) (ABAM Life Technologies, USA) in a humidified incubator with 5% CO2 at 37 °C.\n(§1) In vitro assessment was implemented for cell proliferation using the 3-(4, 5- dimethylthiazol- 2-yl)-2,5-diphenyltetrazolium bromide (MTT) assay. After different treatments with specific time periods, 10 μL of MTT (5 mg/mL in PBS, Sigma, USA) was added to each well and the plates were incubated for 3 h at 37 °C. The resulting formazan product was dissolved with DMSO. The absorbance at a wavelength of 490 nm was recorded using a microplate reader (BioTek Instruments Inc., USA)."}, "GSTP1 Y108A": {"target": "T1, GSTP1 Y108A (Homo sapiens, UniProt P09211, I105V/Y109A)", "T1 construct": "hexahistidine tag followed by a thrombin site (N); made in house; host or cells: Escherichia coli BL21 (DE3)", "T1 sequence (P09211 whole entry I105V/Y109A)": "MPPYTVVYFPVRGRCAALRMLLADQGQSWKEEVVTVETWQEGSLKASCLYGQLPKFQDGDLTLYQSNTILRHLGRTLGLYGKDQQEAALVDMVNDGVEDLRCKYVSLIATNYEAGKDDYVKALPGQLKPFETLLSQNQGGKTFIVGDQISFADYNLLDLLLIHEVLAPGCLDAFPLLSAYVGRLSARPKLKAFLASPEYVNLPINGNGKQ", "test": "GSTP1 kinetic assay, Y108A mutant", "type": "biochemical", "details": "mean ± SEM (n=3)", "experimental": "The enzymatic activity of GSTP1 and its mutations was measured through the increased absorbance at 340 nm, which derived from the conjugation of reduced glutathione (GSH) and 1-chloro-2,4-dinitrobenzene (CDNB). The conjugation was initiated by adding CDNB to the mixture of GSH and GSTP1 or its mutants, and OD was immediately and continually measured for 20 min at 25 °C. The final assay mixture included 1 mM CDNB, 1 mM GSH in the buffer of 100 mM potassium phosphate pH 6.5, 1 mM EDTA. The inhibitory potency of MNPC versus GSTP1 or mutants was determined by calculating the residual activity after incubated with MNPC for 30 min at room temperature. Parallel control was run to monitor spontaneous conjugation of GSH and CDNB in the absence of the enzyme, and absorbance change of the control was used for the correction of an enzymatic reaction. The inhibition rate in triplicate was calculated by GraphPad Prism software (GraphPad, San Diego, CA) to give IC50 using nonlinear regression analysis."}, "U87MG/EGFRvIII cells [2]": {"tested_on": "U87MG/EGFRvIII cells", "test": "Apoptosis: cleaved caspase 3 western blot and TUNEL", "type": "cell-based, human", "details": "0-5 μM, 48 h, confirmed by TUNEL", "experimental": "After different treatments with the conditions described, the cells were harvested and the total proteins were extracted. Equal amounts of the proteins were loaded on SDS-PAGE and western blot assays were analyzed. Primary antibodies were from CST, USA, and the following targets were used: p-EGFR (#2236); EGFR (#2232); NQO1 (#3187); GSTP1 (#3369); cleaved caspase 3 (#9664); β-actin (#3700).\nAfter different treatments, the cells and the tumor tissues were processed with Apo-Direct TUNEL Assay (Roche Applied Science, Germany) following the manufacture’s instruction. The slides were photographed with a fluorescence microscope (Nikon, Japan)."}, "[3]": {"tested_on": "normal cells (HC11, ACS-5003, MEFs)", "test": "Cell proliferation and LDH assays in normal cells", "type": "cell-based", "details": "up to 5 μM", "experimental": "as §1\n(§2) After collecting the supernatants, the […] were measured using LDH assay kits (Promega Corporation, USA). Protein carbonyl level and GSH/GSSG ratio were measured from cell homogenates using Protein Carbonyl Assay Kit (#ab126287, Abcam, Cambridge MA, USA) and GSH/GSSG-Glo™ (Promega Corporation, USA), respectively."}, "U87MG/EGFRvIII cells [4]": {"tested_on": "U87MG/EGFRvIII cells", "test": "LDH, protein carbonyl and GSH/GSSG measurements", "type": "cell-based, human", "details": "dose-dependent, 0-5 μM", "experimental": "as §2"}, "GSTP1 R100A": {"target": "T2, GSTP1 R100A (Homo sapiens, UniProt P09211, I105V/R101A)", "T2 construct": "hexahistidine tag followed by a thrombin site (N); made in house; host or cells: Escherichia coli BL21 (DE3)", "T2 sequence (P09211 whole entry R101A/I105V)": "as the sequence (P09211 whole entry I105V/Y109A) above, with R101A, A109Y counted along it", "test": "Microscale thermophoresis (MST), R100A", "details": "n.b. = no clear binding detected", "experimental": "(§3) Since Tris buffer is incompatible with MST labeling, GSTP1 and its mutants were performed an initial buffer exchange to 20 mM HEPES pH 7.6, 200 mM NaCl before labeling. Then, the proteins were fluorescently labeled using Monolith Protein Labeling Kit RED-NHS 2nd generation dye (NanoTemper Technology, Munich, Germany) according to the protocol. MNPC was prepared with a series of concentrations (varying from 2 mM to 11 nM) at a dilution ratio of 1: 2. Six microliters of the fluorescence-labeled GSTP1 or mutations was mixed with 6 μl of variable concentration of MNPC and incubated for 10 min at room temperature. The mixtures were loaded into standard glass capillaries and analyzed on Monolith NT.115 at 25 °C, with 40% LED power and 100% Laser power in triplicate. Data were analyzed by NTAnalysis software to calculate the Kd values."}, "[5]": {"test": "Toxicity in treated mice (organ H&E, CBC, ALT, AST, body weight)", "type": "in vivo, mouse", "experimental": "Animals were housed, maintained and treated at Emory University in accordance with protocols approved by the Institutional Animal Care and Use Committee (IACUC) at Emory University. For xenograft animal models, U87MG/EGFRvIII cells (2 × 10^6) in 100 μl of PBS were inoculated subcutaneously into 6-week-old nude mice. Tumor growth was assessed every 3 days via size and body weight measurements. The total tumor volume (TV) was calculated according to the following formula: TV (mm^3) = a * b^2/2, where “a” is the […] diameter and “b” denotes the […] diameter. The mice were euthanized after 28 days. For the intracranial model, mice were placed in a stereotaxic instrument, and cells injection (1 × 10^5) in 2 μl was performed stereotaxically at coordinates anteroposterior (AP) -2.0 mm and mediolateral (ML) + 0.7 mm relative to bregma, and dorsoventral (DV) -3.0 mm from the dural surface. The needle remained in place for 5 min before it was removed slowly. The mice were placed on a heating pad until it began to recover from the surgery. After the surgery for 8 days, intraperitoneal (i.p.) injection was used at dose levels of 3 mg/kg, 10 mg/kg or control agent. This treatment was performed every 2 days for a total of 10 times. After the drug treatment, mice were euthanized and the tumor volumes were analyzed by MRI [37].\nThe tumors and primary organs from the nude mice of the above models were fixed in 10% formalin overnight and were then embedded in paraffin. Sections were prepared, and H&E staining was conducted to detect any histological changes of the tumors and organs. The expression of Ki67 in the tumor tissue slices was assessed using a technique that has been reported previously. Photographs were taken using a fluorescence microscope (Nikon, Japan)."}, "GSTP1 WT": {"target": "T3, GSTP1 WT (Homo sapiens, UniProt P09211, I105V)", "T3 construct": "hexahistidine tag followed by a thrombin site (N); made in house; host or cells: Escherichia coli BL21 (DE3)", "T3 sequence (P09211 whole entry I105V)": "as the sequence (P09211 whole entry I105V/Y109A) above, with A109Y counted along it", "test": "Microscale thermophoresis (MST), GSTP1 wild type", "type": "binding", "details": "mean ± SEM, three experiments", "experimental": "as §3"}}, "data": [{"smiles": "Cc1onc(-c2ccccc2)c1C(=O)Nc1ncc([N+](=O)[O-])s1", "note": "[MNPC, 5-methyl-N-(5-nitro-thiazol-2-yl)-3-phenylisoxazole-4-carboxamide]", "values": [{"measurement": "Growth of cultures", "setting": "U87MG/EGFRvIII cells [1]; 0, 0.5, 1, 2 and 5 μM for 5 days, MTT", "result": "dose-dependently inhibited the growth"}, {"measurement": "IC50", "setting": "U87MG/EGFRvIII cells [1]; Homo sapiens, U-87 MG, inhibition of cell proliferation/viability, MNPC treated 72 h", "result": 1.32, "unit": "µM"}, {"measurement": "Cell number in NQO1/GSTP1-depleted cells", "setting": "U87MG/EGFRvIII cells [1]; U87MG/EGFRvIII with si-NQO1, si-GSTP1 or both, MNPC 1 μM, 5 days", "result": "no effect on cell number"}, {"measurement": "IC50", "setting": "GSTP1 Y108A", "result": "25.7 ± 1.41", "unit": "µM"}, {"measurement": "Caspase 3 activation / apoptosis", "setting": "U87MG/EGFRvIII cells [2]", "result": "induced caspase 3 activation"}, {"measurement": "Effect on cell proliferation of normal cells", "setting": "[3]", "result": "barely affected"}, {"measurement": "Carbonyl expression", "setting": "U87MG/EGFRvIII cells [4]", "result": "induced"}, {"measurement": "GSH/GSSG ratio", "setting": "U87MG/EGFRvIII cells [4]", "result": "downregulating"}, {"measurement": "LDH release", "setting": "U87MG/EGFRvIII cells [4]", "result": "induced"}, {"measurement": "Kd (μM), R100A", "setting": "GSTP1 R100A", "result": "n.b. and no detectable binding"}, {"measurement": "Side effect by CBC, ALT and AST", "setting": "[5]; RBC, WBC, ALT, AST, 3, 10 mg/kg, N.S. vs vehicle", "result": "modest"}, {"measurement": "H&E staining of major organs", "setting": "[5]; kidney, liver, spleen, heart and lung, 3, 10 mg/kg i.p.", "result": "no detectable toxicity"}, {"measurement": "Body weight loss", "setting": "[5]; treated mice", "result": "absence of weight loss"}, {"measurement": "Kd", "setting": "GSTP1 WT", "result": "17.6 ± 0.8", "unit": "µM"}]}]}
